From patent US20260176270A1 (Exelixis, Inc., priority 2022, published 2026)
Read-outs that look alike come from different tables or passages of the source.

Assays:
[1] = tested on: phosphorylation of CDK1 at Thr14 in HCC1806 cells; assay: Cell lysate AlphaLISA assay measuring inhibition of phosphorylation of CDK1 Thr14; assay type: cell-based; details: read-out: Cellular IC50
Outline: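 HCC1806 cells seeded overnight, then treated 4 h at 37 °C, 5% CO2 with compounds in DMSO; washed and lysed, lysates frozen overnight at −80 °C. CDK1 Thr14 phosphorylation read by AlphaLISA SureFire Ultra; data normalized to DMSO (0% inhibition) and 3 μM reference compound to give IC50.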

PKMYT1 = target: T1, PKMYT1 (Homo sapiens, UniProt Q99640); assay: ADP-Glo PKMYT1 ATP-depletion assay; details: 50 nM PKMYT1, 13.3 nM CDK1, read-out: Biochemical IC50
T1 construct: PKMYT1 (93 kD, full length, N-terminal GST tag from Signal Chem); GST (N); purchased Signal Chem
T1 sequence (Q99640 1-499): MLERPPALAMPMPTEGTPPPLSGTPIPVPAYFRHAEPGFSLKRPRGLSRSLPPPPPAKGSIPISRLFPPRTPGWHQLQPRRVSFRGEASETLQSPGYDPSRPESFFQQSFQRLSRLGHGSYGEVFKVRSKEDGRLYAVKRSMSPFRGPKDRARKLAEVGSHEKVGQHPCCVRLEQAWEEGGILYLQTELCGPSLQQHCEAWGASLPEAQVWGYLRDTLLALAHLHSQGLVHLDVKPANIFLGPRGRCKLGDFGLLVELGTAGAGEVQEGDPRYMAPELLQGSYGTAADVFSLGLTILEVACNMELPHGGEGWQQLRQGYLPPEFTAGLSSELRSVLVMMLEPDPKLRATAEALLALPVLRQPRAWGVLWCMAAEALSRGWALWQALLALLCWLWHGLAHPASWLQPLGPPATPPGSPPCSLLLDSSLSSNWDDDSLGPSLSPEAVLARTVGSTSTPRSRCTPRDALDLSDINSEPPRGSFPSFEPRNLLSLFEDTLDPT
Outline: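 Full-length N-terminal GST-tagged PKMYT1 (50 nM) with GST-CDK1 (13.3 nM) as substrate and 88 µM ATP, in Hepes buffer with MgCl2, MnCl2, DTT and BSA; DMSO <1%. Incubated 120 min at RT. ADP formed was quantified by ADP-Glo luminescence and used to derive biochemical IC50.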

SMILES	IC50 ([1]; 4 hours)	IC50 (PKMYT1)	IC50 ([1]; Homo sapiens, HCC1806, 4 h)
Cc1ccc(O)c(C)c1-c1c(N)c(C(N)=O)nc2c(F)cccc12 (single isomer, unassigned) [Compound 39, (P)-3-amino-8-fluoro-4-(3-hydroxy-2,6-dimethylphenyl)quinoline-2-carboxamide]	≥ 5000 nM	≥ 5000 nM	–
Cc1c(O)cccc1-c1c(N)c(C(N)=O)cc2ncc(C(F)(F)F)nc12 (single isomer, unassigned) [Compound 125, (M)-7-Amino-8-(3-hydroxy-2-methylphenyl)-2-(trifluoromethyl)-quinoxaline-6-carboxamide]	≥ 5000 nM	1000 to 5000 nM	–
NC(=O)c1nc2cccnc2c(-c2c(F)ccc3[nH]ncc23)c1N (atropisomer, axis not shown) [Compound 245]	≥ 5000 nM	≥ 5000 nM	–
NC(=O)c1nc2cccnc2c(-c2cccc3c2CCN3)c1N [Compound 160]	–	≥ 5000 nM	500 to 1000 nM
CCn1ccc2cc(C(N)=O)c(N)c(-c3cccc(O)c3C)c2c1=O (atropisomer, axis not shown) [Compound 328]	≥ 5000 nM	≥ 5000 nM	–
Cc1c(O)cccc1-c1c(N)c(C(N)=O)cc2ncc(C(F)(F)F)nc12 [Compound 139]	50 to 500 nM	< 50 nM	–
Cc1ccc(O)c(C)c1-c1cc(C(N)=O)nc2ccccc12 [Compound 12, 4-(3-Hydroxy-2,6-dimethylphenyl)quinoline-2-carboxamide]	–	1000 to 5000 nM	50 to 500 nM
Cc1cnc2cc(C(N)=O)c(N)c(-c3c(C)ccc(O)c3C)c2n1 (atropisomer, axis not shown) [Compound 188]	50 to 500 nM	< 50 nM	–
COc1cncc(-c2c(N)c(C(N)=O)nc3cccnc23)c1C [Compound 153]	500 to 1000 nM	50 to 500 nM	–
NC(=O)c1cc2nccnc2c(-c2ccc3ocnc3c2)c1N [Compound 178]	–	≥ 5000 nM	≥ 5000 nM
Cc1c(O)cccc1-c1c(N)c(C(N)=O)nc2cc(C(F)(F)F)cnc12 [Compound 161]	50 to 500 nM	< 50 nM	–
Cc1cnn(C)c1-c1c(N)c(C(N)=O)nc2cccnc12 [Compound 210]	–	≥ 5000 nM	≥ 5000 nM
Cc1cc(O)c(C)c(-c2c(N)c(C(N)=O)nc3cccnc23)c1 [Compound 291]	≥ 5000 nM	1000 to 5000 nM	–
Cc1c(O)cccc1-c1c(N)c(C(N)=O)cc2nc(C(F)(F)F)c(O)nc12 (atropisomer, axis not shown) [Compound 135]	1000 to 5000 nM	50 to 500 nM	–
Cc1ccc(O)c(C)c1-c1c(N)c(C(N)=O)nc2ccc(F)cc12 (atropisomer, axis not shown; (M)) [Compound 23, (M)-3-Amino-6-fluoro-4-(3-hydroxy-2,6-dimethylphenyl) quinoline-2-carboxamide]	1000 to 5000 nM	50 to 500 nM	–
Cc1ccc(O)c(C)c1-c1c(N)c(C(N)=O)cc2nc(-c3cnn(C)c3)cnc12 [Compound 251]	–	< 50 nM	500 to 1000 nM
Cc1ccc(C#N)cc1-c1c(N)c(C(N)=O)nc2cccnc12 [Compound 254]	–	≥ 5000 nM	≥ 5000 nM
Cc1c(O)cncc1-c1c(N)c(C(N)=O)nc2cccnc12 [Compound 155]	–	50 to 500 nM	500 to 1000 nM
Cc1nc2cc(C(N)=O)c(N)c(-c3cccc(O)c3C)c2nc1C (single isomer, unassigned) [Compound 93, (M)-7-Amino-8-(3-hydroxy-2-methylphenyl)-2,3-dimethylquinoxaline-6-carboxamide]	≥ 5000 nM	≥ 5000 nM	–
NC(=O)c1nc2cccnc2c(-c2cncc(Cl)c2Cl)c1N [Compound 258]	–	< 50 nM	50 to 500 nM
Cc1cnc2cc(C(N)=O)c(N)c(-c3cccc(O)c3C)c2n1 (atropisomer, axis not shown) [Compound 168]	50 to 500 nM	< 50 nM	–
COc1ccc2c(-c3c(C)ccc(O)c3C)c(N)c(C(N)=O)nc2c1 [Compound 47, 3-Amino-4-(3-hydroxy-2,6-dimethylphenyl)-7-methoxyquinoline-2-carboxamide]	–	1000 to 5000 nM	1000 to 5000 nM
Cc1nc(F)ccc1-c1c(N)c(C(N)=O)nc2cccnc12 [Compound 228]	–	≥ 5000 nM	≥ 5000 nM
Cc1c(-c2c(N)c(C(N)=O)cc3nccnc23)ccc(F)c1O (atropisomer, axis not shown) [Compound 307]	≥ 5000 nM	1000 to 5000 nM	–
Cc1c(O)cccc1-c1c(N)c(C(N)=O)cc2ncc(C(F)(F)F)nc12 (single isomer, unassigned) [Compound 124, (P)-7-Amino-8-(3-hydroxy-2-methylphenyl)-2-(trifluoromethyl)quinoxaline-6-carboxamide]	50 to 500 nM	< 50 nM	–
Cc1ccc2[nH]nc(F)c2c1-c1c(N)c(C(N)=O)cc2nccnc12 [Compound 176]	≥ 5000 nM	500 to 1000 nM	–
Cc1c(C#N)cncc1-c1c(N)c(C(N)=O)nc2cccnc12 [Compound 317]	–	1000 to 5000 nM	≥ 5000 nM
Cc1ccc2[nH]ncc2c1-c1c(N)c(C(N)=O)cc2nccnc12 [Compound 77, 7-Amino-8-(5-methyl-1H-indazol-4-yl)quinoxaline-6-carboxamide]	–	50 to 500 nM	1000 to 5000 nM
Cc1ccc2[nH]nc(F)c2c1-c1c(N)c(C(N)=O)cc2nccnc12 (atropisomer, axis not shown) [Compound 300]	1000 to 5000 nM	50 to 500 nM	–

Results, then the molecule that gave them:

IC50 ([1]; 4 hours)	IC50 (PKMYT1)	IC50 ([1]; Homo sapiens, HCC1806, 4 h)	SMILES
1000 to 5000 nM	1000 to 5000 nM	–	Cc1c(O)cccc1-c1c(N)c(C(N)=O)nc2cc(C(F)(F)F)ccc12 (atropisomer, axis not shown) [Compound 147]
–	50 to 500 nM	≥ 5000 nM	Cc1ccncc1-c1c(N)c(C(N)=O)nc2cccnc12 [Compound 184]
≥ 5000 nM	≥ 5000 nM	–	Cc1ccc2[nH]ncc2c1-c1c(N)c(C(N)=O)cc2nccnc12 (single isomer, unassigned) [Compound 79, (M)-7-amino-8-(5-methyl-1H-indazol-4-yl)quinoxaline-6-carboxamide]
≥ 5000 nM	≥ 5000 nM	–	Cc1n[nH]c2cccc(-c3c(N)c(C(N)=O)cc4nccnc34)c12 (single isomer, unassigned) [Compound 119, (P)-7-amino-8-(3-methyl-1H-indazol-4-yl)quinoxaline-6-carboxamide]
50 to 500 nM	< 50 nM	–	Cc1cnc2c(-c3c(C)ccc(O)c3C)c(N)c(C(N)=O)cc2n1 [Compound 217]
–	50 to 500 nM	1000 to 5000 nM	NC(=O)c1nc2cccnc2c(-c2cccc3[nH]ncc23)c1N [Compound 206]
≥ 5000 nM	1000 to 5000 nM	–	Cc1c(O)cccc1-c1c(N)c(C(N)=O)cc2ncccc12 (atropisomer, axis not shown; (P)) [Compound 69, (P)-6-amino-5-(3-hydroxy-2-methylphenyl)quinoline-7-carboxamide]
–	50 to 500 nM	50 to 500 nM	NC(=O)c1cc2nccnc2c(-c2cccc(O)c2F)c1N [Compound 120, 7-Amino-8-(2-fluoro-3-hydroxyphenyl)quinoxaline-6-carboxamide]
50 to 500 nM	< 50 nM	–	COc1nc2cc(C(N)=O)c(N)c(-c3cccc(O)c3C)c2nc1C (atropisomer, axis not shown) [Compound 187]
–	≥ 5000 nM	≥ 5000 nM	COc1ccc2nc(C(N)=O)c(N)c(-c3cc(O)ncc3C)c2n1 [Compound 315]
≥ 5000 nM	≥ 5000 nM	–	Cc1ccc2c(-c3cccc(O)c3C)c(N)c(C(N)=O)nc2c1 (single isomer, unassigned) [Compound 50, (P)-3-amino-4-(3-hydroxy-2-methylphenyl)-7-methylquinoline-2-carboxamide]
50 to 500 nM	50 to 500 nM	–	Cc1c(O)cccc1-c1c(N)c(C(N)=O)nc2cccc(C#N)c12 (atropisomer, axis not shown) [Compound 243]
–	≥ 5000 nM	≥ 5000 nM	Cc1cnc2[nH]ncc2c1-c1c(N)c(C(N)=O)cc2nccnc12 [Compound 234]
–	≥ 5000 nM	≥ 5000 nM	NC(=O)c1nc2cccnc2c(-c2cccc3c2CCN3C=O)c1N [Compound 162]
≥ 5000 nM	1000 to 5000 nM	–	NC(=O)c1cc2nccnc2c(-c2c(Cl)ccc3[nH]ncc23)c1N (atropisomer, axis not shown) [Compound 247]
–	50 to 500 nM	50 to 500 nM	Cc1ccc(O)c(C)c1-c1c(N)c(C(N)=O)cc2cccnc12 [Compound 64, 7-Amino-8-(3-hydroxy-2,6-dimethylphenyl)quinoline-6-carboxamide]
–	500 to 1000 nM	1000 to 5000 nM	Cc1cncc(C2=c3ncccc3=NC(C(N)=O)C2N)c1C (stereo not shown) [Compound 211]
–	1000 to 5000 nM	≥ 5000 nM	NC(=O)c1nc2cccnc2c(-c2cnn3c2CCCC3)c1N [Compound 322]
